MIC data for 8 compounds are collected here from patent publication US6825172B2, “3-descladinosyl-6-O-carbamoyl and 6-O-carbonoyl macrolide antibacterial agents” (Janssen Pharmaceutica, NV, priority 2002, dated 2004).

Values after ≈ are worked out from the molar mass of the structure shown. Where two headings read alike, the source gives them in different places.

Common to all, as to experiment: MIC, microdilution broth method (NCCLS)
What all share (format): cell-based

The subject of experiment [1] is E. faecalis ATCC29212. Conditions: Enterococcus faecalis, read-out: MIC Values, C: E. faecalis ATCC29212. The protocol: (§1) Minimal inhibitory concentration (MIC) has been an indicator of in vitro antibacterial activity widely used in the art. The in vitro antimicrobial activity of the compounds was determined by the microdilution broth method following the test method from the National Committee for Clinical Laboratory Standards (NCCLS). This method is described in the NCCLS Document M7-A4, Vol.17, No.2, “Methods for Dilution Antimicrobial Susceptibility Test for Bacteria that Grow Aerobically—Fourth Edition”, which is incorporated herein by reference.
(§2) In this method two-fold serial dilutions of drug in cation adjusted Mueller-Hinton broth are added to wells in microdilution trays. The test organisms are prepared by adjusting the turbidity of actively growing broth cultures so that the final concentration of test organism after it is added to the wells is approximately 5×10^4 CFU/well.
(§3) Following inoculation of the microdilution trays, the trays are incubated at 35 °C for 16-20 hours and then read. […] The amount of growth in the wells containing the test compound is compared with the amount of growth in the growth-control wells (no test compound) used in each tray. As set forth in Table 1, compounds of the present invention were tested against a variety of Gram positive and Gram negative pathogenic bacteria resulting in a range of activities depending on the organism tested.

The test system of experiment [2] is S. pneumoniae ATCC49619. To be noted: Streptococcus pneumoniae, read-out: MIC Values, D: S. pneumoniae ATCC49619. The protocol:
as §1, §2, §3

The subject of experiment [3] is H. influenzae ATCC49247. To be noted: Haemophilus influenzae, read-out: MIC Values, E: H. influenzae ATCC49247. The protocol:
as §1, §2, §3

In experiment [4] the test system is S. aureus ATCC29213. Conditions: Staphylococcus aureus, read-out: MIC Values, B: S. aureus ATCC29213. The protocol:
as §1, §2, §3

For experiment [5], the system named is E. coli OC2605. Conditions: Escherichia coli. The protocol:
as §1, §2, §3

Where [6] appears, read: Table 1, 6-Carbamoyl-3-Acyl Macrolide Derivatives.
Where [7] appears, read: Table 1, 6-Carbamoyl-3-Acyl Macrolide Derivatives, read-out: MIC Values, A: E. coli OC2605.
Setting [8] is: Table 2, 3,6-Dicarbamoyl Macrolide Derivatives.
Where [9] appears, read: Table 2, 3,6-Dicarbamoyl Macrolide Derivatives, read-out: MIC Values, A: E. coil OC2605.

Regarding `CC[C@H](C)C(=O)O[C@H]1[C@H](C)[C@@H](O[C@@H]2O[C@H](C)C[C@H](N(C)C)[C@H]2O)[C@](C)(OC(=O)NC/C=C/c2ccc(-c3ncccn3)cc2)C[C@@H](C)C(=O)[C@H](C)[C@H]2NC(=O)O[C@]2(C)[C@@H](CC)OC(=O)[C@@H]1C` [Compound 15], the MIC in experiment [1] (setting [6]) was 0.5 µg/mL (≈ 0.542 µM); in experiment [2] (setting [6]) it was 0.06 µg/mL (≈ 0.0651 µM); in experiment [3] (setting [6]), 4 µg/mL (≈ 4.34 µM); in experiment [4] (setting [6]), 0.5 µg/mL (≈ 0.542 µM); in experiment [5] (setting [7]), greater than 16 µg/mL.

On to `CC[C@H]1OC(=O)[C@H](C)[C@@H](OC(=O)C(C)C)[C@H](C)[C@@H](O[C@@H]2O[C@H](C)C[C@H](N(C)C)[C@H]2O)[C@](C)(OC(=O)NC/C=C/C=C/c2cccnc2)C[C@@H](C)C(=O)[C@H](C)[C@H]2NC(=O)O[C@@]21C` [Compound 24], for which the MIC in experiment [1] (setting [6]) was 0.25 µg/mL (≈ 0.292 µM); in experiment [2] (setting [6]), less than 0.015 µg/mL; in experiment [3] (setting [6]), 2 µg/mL (≈ 2.33 µM); in experiment [4] (setting [6]), 0.5 µg/mL (≈ 0.583 µM); in experiment [5] (setting [7]), greater than 16 µg/mL.

As for `CC[C@H]1OC(=O)[C@H](C)[C@@H](OC(=O)Cc2cccnc2)[C@H](C)[C@@H](O[C@@H]2O[C@H](C)C[C@H](N(C)C)[C@H]2O)[C@](C)(OC(=O)NC/C=C/c2cnc(C(C)C)nc2)C[C@@H](C)C(=O)[C@H](C)[C@H]2NC(=O)O[C@@]21C` [Compound 41], the MIC was 0.5 µg/mL (≈ 0.542 µM) in experiment [1] (setting [6]); 0.12 µg/mL (≈ 0.13 µM) in experiment [2] (setting [6]); 4 µg/mL (≈ 4.33 µM) in experiment [3] (setting [6]); 1 µg/mL (≈ 1.08 µM) in experiment [4] (setting [6]); greater than 16 µg/mL in experiment [5] (setting [7]).

Take `CC[C@H]1OC(=O)[C@H](C)[C@@H](OC(=O)NC2CCCCC2)[C@H](C)[C@@H](O[C@@H]2O[C@H](C)C[C@H](N(C)C)[C@H]2O)[C@](C)(OC(=O)NC/C=C/c2ccc(-c3ncccn3)cc2)C[C@@H](C)C(=O)[C@H](C)[C@H]2NC(=O)O[C@@]21C` [Compound 51]: the MIC in experiment [1] (setting [8]) is 0.5 µg/mL (≈ 0.519 µM); in experiment [2] (setting [8]), 0.12 µg/mL (≈ 0.125 µM); in experiment [3] (setting [8]), 2 µg/mL (≈ 2.08 µM); in experiment [4] (setting [8]) it was 1 µg/mL (≈ 1.04 µM); in experiment [5] (setting [9]), greater than 16 µg/mL.

Regarding `CC[C@H]1OC(=O)[C@H](C)[C@@H](OC(=O)/C=C/c2cccnc2)[C@H](C)[C@@H](O[C@@H]2O[C@H](C)C[C@H](N(C)C)[C@H]2O)[C@](C)(OC(=O)NC/C=C/c2ccc(-c3ncccn3)cc2)C[C@@H](C)C(=O)[C@H](C)[C@H]2NC(=O)O[C@@]21C` [Compound 6], the MIC is 1 µg/mL (≈ 1.03 µM) in experiment [1] (setting [6]); 0.12 µg/mL (≈ 0.124 µM) in experiment [2] (setting [6]); greater than 16 µg/mL in experiment [3] (setting [6]); 2 µg/mL (≈ 2.06 µM) in experiment [4] (setting [6]); greater than 16 µg/mL in experiment [5] (setting [7]).

Turning to `CC[C@H]1OC(=O)[C@H](C)[C@@H](OC(=O)COCc2ccccc2)[C@H](C)[C@@H](O[C@@H]2O[C@H](C)C[C@H](N(C)C)[C@H]2O)[C@](C)(OC(=O)NC/C=C/c2ccc(-c3ncccn3)cc2)C[C@@H](C)C(=O)[C@H](C)[C@H]2NC(=O)O[C@@]21C` [Compound 16], the MIC in experiment [1] (setting [6]) is 0.5 µg/mL (≈ 0.507 µM); in experiment [2] (setting [6]) it was 0.06 µg/mL (≈ 0.0608 µM); in experiment [3] (setting [6]), 8 µg/mL (≈ 8.11 µM); in experiment [4] (setting [6]) it was 1 µg/mL (≈ 1.01 µM); in experiment [5] (setting [7]), greater than 16 µg/mL.

As for `CC[C@H]1OC(=O)[C@H](C)[C@@H](OC(=O)Cc2cn(C)c3ccccc23)[C@H](C)[C@@H](O[C@@H]2O[C@H](C)C[C@H](N(C)C)[C@H]2O)[C@](C)(OC(=O)NC/C=C/c2ccc(-c3ncccn3)cc2)C[C@@H](C)C(=O)[C@H](C)[C@H]2NC(=O)O[C@@]21C` [Compound 11], the MIC in experiment [1] (setting [6]) is 2 µg/mL (≈ 1.98 µM); in experiment [2] (setting [6]), 0.25 µg/mL (≈ 0.248 µM); in experiment [3] (setting [6]), 8 µg/mL (≈ 7.93 µM); in experiment [4] (setting [6]), 2 µg/mL (≈ 1.98 µM); in experiment [5] (setting [7]) it was greater than 16 µg/mL.

Consider `CC[C@H]1OC(=O)[C@H](C)[C@@H](OC(=O)N2Cc3cccnc3C2)[C@H](C)[C@@H](O[C@@H]2O[C@H](C)C[C@H](N(C)C)[C@H]2O)[C@](C)(OC(=O)NC/C=C/c2ccc(-c3ncccn3)cc2)C[C@@H](C)C(=O)[C@H](C)[C@H]2NC(=O)O[C@@]21C` [Compound 67], for which the MIC is 0.5 µg/mL (≈ 0.508 µM) in experiment [1] (setting [8]); 0.06 µg/mL (≈ 0.061 µM) in experiment [2] (setting [8]); 8 µg/mL (≈ 8.13 µM) in experiment [3] (setting [8]); 0.5 µg/mL (≈ 0.508 µM) in experiment [4] (setting [8]); greater than 16 µg/mL in experiment [5] (setting [9]).
